Test results reported in the supplement of paper PMC13207355.

Key:
Conditions in all cases: exposure time: 72 h
E34 [1] = patient-derived glioblastoma stem cells of proneural subtype; assay: phenotypic distance (Euclidean, principal components) from DMSO controls (arbitrary units); higher = stronger morphological change
E31 [2] = patient-derived glioblastoma stem cells of proneural subtype; assay: as above
E21 [3] = patient-derived glioblastoma stem cells of mesenchymal subtype; assay: as above
E28 [4] = patient-derived glioblastoma stem cells of classical subtype; assay: as above
E57 [5] = patient-derived glioblastoma stem cells of mesenchymal subtype; assay: as above
E13 [6] = patient-derived glioblastoma stem cells of classical subtype; assay: as above
FT3469 [7] = normal neural stem cell line; assay: as above
E34 [8] = assay: surviving fraction (nuclei count normalised to DMSO); higher = more cells surviving (less toxic)
E31 [9] = assay: as above
E21 [10] = assay: as above
E28 [11] = assay: as above
E57 [12] = assay: as above
E13 [13] = assay: as above
FT3469 [14] = assay: as above
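Throughout, for phenotypic distance (Euclidean, principal components) from DMSO controls: cell Painting imaging in 384-well plates, CellProfiler features reduced to at least 20 principal components, Euclidean distance versus same-plate DMSO vehicle wells (0.1% v/v), median over six images per well.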
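Throughout, for surviving fraction (nuclei count normalised to DMSO): nuclei counted by high-content imaging of Hoechst-stained cells in laminin-coated 384-well plates, relative to 0.1% DMSO vehicle wells, with staurosporine as cell-death control.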

C#C[C@]1(O)CC[C@H]2[C@@H]3CCc4cc(OC5CCCC5)ccc4[C@H]3CC[C@@]21C [Quinestrol]
Conditions | phenotypic distance | surviving fraction
E13 [6], 4.1 nM | 0.478 | –
E13 [6], 12.3 nM | 0.526 | –
E13 [6], 37 nM | 0.837 | –
E13 [6], 111.1 nM | 0.697 | –
E13 [6], 333.3 nM | 0.689 | –
E13 [6], 1000 nM | 1.18 | –
E13 [6], 3000 nM | 7.05 | –
E13 [13], 4.1 nM | – | 1.06
E13 [13], 12.3 nM | – | 1.04
E13 [13], 37 nM | – | 1.11
E13 [13], 111.1 nM | – | 1.07
E13 [13], 333.3 nM | – | 1.02
E13 [13], 1000 nM | – | 0.946
E13 [13], 3000 nM | – | 0.347
E21 [3], 4.1 nM | 0.608 | –
E21 [3], 12.3 nM | 0.48 | –
E21 [3], 37 nM | 0.746 | –
E21 [3], 111.1 nM | 0.53 | –
E21 [3], 333.3 nM | 0.819 | –
E21 [3], 1000 nM | 2.32 | –
E21 [3], 3000 nM | 6.37 | –
E21 [10], 4.1 nM | – | 1.01
E21 [10], 12.3 nM | – | 0.938
E21 [10], 37 nM | – | 1.05
E21 [10], 111.1 nM | – | 0.982
E21 [10], 333.3 nM | – | 1.02
E21 [10], 1000 nM | – | 0.873
E21 [10], 3000 nM | – | 0.617
E28 [4], 4.1 nM | 0.438 | –
E28 [4], 12.3 nM | 2.42 | –
E28 [4], 37 nM | 0.788 | –
E28 [4], 111.1 nM | 0.466 | –
E28 [4], 333.3 nM | 0.753 | –
E28 [4], 1000 nM | 0.514 | –
E28 [4], 3000 nM | 0.675 | –
E28 [11], 4.1 nM | – | 1.13
E28 [11], 12.3 nM | – | 1.04
E28 [11], 37 nM | – | 1.08
E28 [11], 111.1 nM | – | 1.1
E28 [11], 333.3 nM | – | 1.04
E28 [11], 1000 nM | – | 1.19
E28 [11], 3000 nM | – | 1.01
E31 [2], 4.1 nM | 0.447 | –
E31 [2], 12.3 nM | 0.67 | –
E31 [2], 37 nM | 1.03 | –
E31 [2], 111.1 nM | 0.71 | –
E31 [2], 333.3 nM | 0.698 | –
E31 [2], 1000 nM | 0.864 | –
E31 [2], 3000 nM | 3.81 | –
E31 [9], 4.1 nM | – | 1.02
E31 [9], 12.3 nM | – | 0.942
E31 [9], 37 nM | – | 1.09
E31 [9], 111.1 nM | – | 1.07
E31 [9], 333.3 nM | – | 0.981
E31 [9], 1000 nM | – | 1.01
E31 [9], 3000 nM | – | 0.848
E34 [1], 4.1 nM | 0.544 | –
E34 [1], 12.3 nM | 0.554 | –
E34 [1], 37 nM | 0.597 | –
E34 [1], 111.1 nM | 0.985 | –
E34 [1], 333.3 nM | 1.09 | –
E34 [1], 1000 nM | 0.707 | –
E34 [1], 3000 nM | 1.82 | –
E34 [8], 4.1 nM | – | 1.01
E34 [8], 12.3 nM | – | 1.07
E34 [8], 37 nM | – | 1.01
E34 [8], 111.1 nM | – | 1.07
E34 [8], 333.3 nM | – | 1.15
E34 [8], 1000 nM | – | 0.967
E34 [8], 3000 nM | – | 0.918
E57 [5], 4.1 nM | 1.71 | –
E57 [5], 12.3 nM | 1.01 | –
E57 [5], 37 nM | 0.583 | –
E57 [5], 111.1 nM | 0.81 | –
E57 [5], 333.3 nM | 0.452 | –
E57 [5], 1000 nM | 0.7 | –
E57 [5], 3000 nM | 3.72 | –
E57 [12], 4.1 nM | – | 1.05
E57 [12], 12.3 nM | – | 1.05
E57 [12], 37 nM | – | 1.01
E57 [12], 111.1 nM | – | 1.06
E57 [12], 333.3 nM | – | 1.01
E57 [12], 1000 nM | – | 1.03
E57 [12], 3000 nM | – | 0.693
FT3469 [7], 4.1 nM | 0.479 | –
FT3469 [7], 12.3 nM | 0.739 | –
FT3469 [7], 37 nM | 0.643 | –
FT3469 [7], 111.1 nM | 1.01 | –
FT3469 [7], 333.3 nM | 0.84 | –
FT3469 [7], 1000 nM | 0.699 | –
FT3469 [7], 3000 nM | 1.58 | –
FT3469 [14], 4.1 nM | – | 0.963
FT3469 [14], 12.3 nM | – | 1.03
FT3469 [14], 37 nM | – | 1.11
FT3469 [14], 111.1 nM | – | 1.09
FT3469 [14], 333.3 nM | – | 1.2
FT3469 [14], 1000 nM | – | 0.888
FT3469 [14], 3000 nM | – | 0.938

Clc1ccc(COC(Cn2ccnc2)c2ccc(Cl)cc2Cl)cc1 (stereo unspecified) [Econazole nitrate]
Conditions | phenotypic distance | surviving fraction
E13 [6], 4.1 nM | 0.86 | –
E13 [6], 12.3 nM | 0.584 | –
E13 [6], 37 nM | 0.567 | –
E13 [6], 111.1 nM | 1.07 | –
E13 [6], 333.3 nM | 1.37 | –
E13 [6], 1000 nM | 0.962 | –
E13 [6], 3000 nM | 1.16 | –
E13 [13], 4.1 nM | – | 0.964
E13 [13], 12.3 nM | – | 1.05
E13 [13], 37 nM | – | 0.999
E13 [13], 111.1 nM | – | 1.11
E13 [13], 333.3 nM | – | 1.08
E13 [13], 1000 nM | – | 0.997
E13 [13], 3000 nM | – | 0.967
E21 [3], 4.1 nM | 0.651 | –
E21 [3], 12.3 nM | 0.516 | –
E21 [3], 37 nM | 0.785 | –
E21 [3], 111.1 nM | 0.844 | –
E21 [3], 333.3 nM | 0.917 | –
E21 [3], 1000 nM | 0.797 | –
E21 [3], 3000 nM | 1.31 | –
E21 [10], 4.1 nM | – | 1.11
E21 [10], 12.3 nM | – | 0.967
E21 [10], 37 nM | – | 0.99
E21 [10], 111.1 nM | – | 1.03
E21 [10], 333.3 nM | – | 1.01
E21 [10], 1000 nM | – | 1.11
E21 [10], 3000 nM | – | 1.18
E28 [4], 4.1 nM | 0.359 | –
E28 [4], 12.3 nM | 0.539 | –
E28 [4], 37 nM | 0.504 | –
E28 [4], 111.1 nM | 0.446 | –
E28 [4], 333.3 nM | 0.803 | –
E28 [4], 1000 nM | 0.72 | –
E28 [4], 3000 nM | 0.946 | –
E28 [11], 4.1 nM | – | 1.06
E28 [11], 12.3 nM | – | 1.03
E28 [11], 37 nM | – | 1.06
E28 [11], 111.1 nM | – | 0.943
E28 [11], 333.3 nM | – | 1.12
E28 [11], 1000 nM | – | 0.941
E28 [11], 3000 nM | – | 0.965
E31 [2], 4.1 nM | 0.819 | –
E31 [2], 12.3 nM | 0.415 | –
E31 [2], 37 nM | 0.765 | –
E31 [2], 111.1 nM | 0.767 | –
E31 [2], 333.3 nM | 0.871 | –
E31 [2], 1000 nM | 1.4 | –
E31 [2], 3000 nM | 1.39 | –
E31 [9], 4.1 nM | – | 1.03
E31 [9], 12.3 nM | – | 0.985
E31 [9], 37 nM | – | 0.969
E31 [9], 111.1 nM | – | 0.924
E31 [9], 333.3 nM | – | 1.08
E31 [9], 1000 nM | – | 1.17
E31 [9], 3000 nM | – | 1.14
E34 [1], 4.1 nM | 0.901 | –
E34 [1], 12.3 nM | 0.505 | –
E34 [1], 37 nM | 0.479 | –
E34 [1], 111.1 nM | 1.39 | –
E34 [1], 333.3 nM | 0.912 | –
E34 [1], 1000 nM | 1.29 | –
E34 [1], 3000 nM | 1.17 | –
E34 [8], 4.1 nM | – | 0.983
E34 [8], 12.3 nM | – | 1.08
E34 [8], 37 nM | – | 1.01
E34 [8], 111.1 nM | – | 1.17
E34 [8], 333.3 nM | – | 1.03
E34 [8], 1000 nM | – | 1.11
E34 [8], 3000 nM | – | 0.957
E57 [5], 4.1 nM | 0.324 | –
E57 [5], 12.3 nM | 0.67 | –
E57 [5], 37 nM | 0.501 | –
E57 [5], 111.1 nM | 0.756 | –
E57 [5], 333.3 nM | 0.858 | –
E57 [5], 1000 nM | 1.1 | –
E57 [5], 3000 nM | 1.45 | –
E57 [12], 4.1 nM | – | 1.02
E57 [12], 12.3 nM | – | 1.04
E57 [12], 37 nM | – | 1.07
E57 [12], 111.1 nM | – | 1.06
E57 [12], 333.3 nM | – | 1.09
E57 [12], 1000 nM | – | 1.03
E57 [12], 3000 nM | – | 1.05
FT3469 [7], 4.1 nM | 0.434 | –
FT3469 [7], 12.3 nM | 0.211 | –
FT3469 [7], 37 nM | 0.645 | –
FT3469 [7], 111.1 nM | 0.741 | –
FT3469 [7], 333.3 nM | 0.628 | –
FT3469 [7], 1000 nM | 0.747 | –
FT3469 [7], 3000 nM | 0.632 | –
FT3469 [14], 4.1 nM | – | 0.824
FT3469 [14], 12.3 nM | – | 0.949
FT3469 [14], 37 nM | – | 1.04
FT3469 [14], 111.1 nM | – | 1.03
FT3469 [14], 333.3 nM | – | 0.854
FT3469 [14], 1000 nM | – | 0.902
FT3469 [14], 3000 nM | – | 0.864
